Where “and” joins values, the source holds several entries; their conditions need not be identical. Equal values may be shown once. Read-outs that look alike come from different tables or passages of the source.
How the values were obtained:
MDA-MB-231 = test: Cell growth inhibition assay (resazurin, 48 h); assay type: cell-based, human; conditions: MDA-MB-231, 48 h
U266 = test: Cell growth inhibition assay (resazurin, 48 h); assay type: cell-based; conditions: Homo sapiens, U-266, 48 h, U266, 48 h
tumor cell lines = test: Growth inhibition / cytotoxicity, summary over tumor cell lines; assay type: cell-based
Caspase-3 = Caspase-3 activity assay in Jurkat cells; assay type: cell-based, human; conditions: EC50 concentration, 19 hours
Experimental: Jurkat cells were plated at 2×10^6 cells/3 mL per well in a 6-well plate and incubated at 37° C., 5% (v/v) CO2 and 95% (v/v) humidity. […] Bhalla, et al., Blood 82:3133 (1993). […] Cells treated with 0.25% DMSO served as the negative control. The cells were collected by centrifugation and the media removed. Cell pellets were processed for the Caspase-3 activity assay as described in the manufacturer's protocol (EnzChek Caspase-3 Assay Kit from Molecular Probes (E-13183; see Appendix G, which form a part of this application and is also available at hypertext transfer protocol on the worldwide web at “probes.com.media/pis/mp13183.pdf.”. In brief, cell pellets were lysed on ice, mixed with the EnzChek Caspase-3 components in a 96-well plate, and then incubated in the dark for 30 minutes prior to reading fluorescence of cleaved benzyloxycarbonyl-DEVD-[…] using a Packard Fusion with λex=485 nm and λem=530 nm filters. Protein concentrations for lysates were determined using the BCA Protein Assay Kit (Pierce) and these values were used for normalization.

[1] = tested on: 20S proteasome chymotrypsin-like activity in RPMI 8226 cells; test: Chymotrypsin-like activity of 20S proteasomes in treated RPMI 8226 cells; assay type: cell-based, human; conditions: 1 nM, 1 hr
Experimental: RPMI 8226 (ATCC, CCL-155), the human multiple myeloma cell line, was cultured in RPMI 1640 medium supplemented with 2 mM L-glutamine, 100 units/ml penicillin, 100 μg/ml streptomycin, 1 mM sodium pyruvate and 10% heat inactivated fetal bovine serum at 37° C., 5% CO2 and 95% humidified air. […] DMSO was used as the vehicle control at a final concentration of 0.1%. Following 1 hr incubation of RMPI 8226 cells with the compounds, the cells were pelleted by centrifugation at 2,000 rpm for 10 sec at room temperature and washed 3× with ice-cold 1× Dulbecco's Phosphate-Buffered Saline (DPBS, Mediatech, Herndon, Va.). DPBS washed cells were lysed on ice for 15 min in lysis buffer (20 mM HEPES, 0.5 mM EDTA, 0.05% Triton X-100, pH 7.3) supplemented with protease inhibitor cocktail (Roche Diagnostics, Indianapolis, Ind.). Cell debris was pelleted by centrifugation at 14,000 rpm for 10 min, 4° C. and supernatants (=cell lysates) were transferred to a new tube. Protein concentration was determined by the BCA protein assay kit (Pierce Biotechnology, Rockford, Ill.). […] The released coumarin (AMC) was measured fluorometrically by using λex=390 nm and λem=460 nm. The assay was performed in a microtiter plate (Corning 3904) and followed kinetically with measurements every five minutes for 2 hr. The total amount of protein used for each assay was 20 μg. […]

[2] = biological target: T1, human erythrocyte proteasomes, Caspase-like activity (Homo sapiens, UniProt P28072); test: Caspase-like activity of human erythrocyte proteasomes; assay type: biochemical
T1 construct: from tissue; host or cells: human erythrocytes

MIA PaCa-2 = test: Cell growth inhibition assay (resazurin, 48 h); assay type: cell-based; conditions: Homo sapiens, MIA PaCa-2, 48 h
CCD-27sk = test: Cytotoxic activity, 48 h, normal human fibroblasts; assay type: cell-based
[3] = biological target: T2, 20S proteasome chymotrypsin-like activity in PC-3 cells (Homo sapiens, UniProt P28074); test: Chymotrypsin-like activity of 20S proteasomes in treated PC-3 cells; assay type: cell-based; conditions: 5 nM, 1 hr
T2 construct: PC-3 (ATCC, CRL-1435), the human prostate cancer cell line; host or cells: PC-3
T2 sequence (P28074 60-263): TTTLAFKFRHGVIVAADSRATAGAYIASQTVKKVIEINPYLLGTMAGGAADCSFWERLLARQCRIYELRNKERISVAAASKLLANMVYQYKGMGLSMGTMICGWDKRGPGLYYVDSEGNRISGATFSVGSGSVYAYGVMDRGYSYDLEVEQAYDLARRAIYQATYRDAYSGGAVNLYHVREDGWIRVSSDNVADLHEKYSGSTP
Experimental: PC-3 (ATCC, CRL-1435), the human prostate cancer cell line, was cultured in F12K medium supplemented with 2 mM L-glutamine, 100 units/ml penicillin, 100 μg/ml streptomycin and 10% heat inactivated fetal bovine serum at 37° C., 5% CO2 and 95% humidified air. […] DMSO was used as the vehicle control at a final concentration of 0.1%. Following 1 hr incubation of PC-3 cells with the compounds, the cells were washed 3× with ice-cold 1× Dulbecco's Phosphate-Buffered Saline (DPBS, Mediatech, Herndon, Va.). […] Cell debris was pelleted by centrifugation at 14,000 rpm for 10 min, 4° C. and supernatants (=cell lysates) were transferred to a new tube. Protein concentration was determined by the BCA protein assay kit (Pierce Biotechnology, Rockford, Ill.). […] The released coumarin (AMC) was measured fluorometrically by using λex=390 nm and λem=460 nm. The assay was performed in a microtiter plate (Corning 3904) and followed kinetically with measurements every five minutes for 2 hr. The total amount of protein used for each assay was 20 μg. The final concentration of Suc-LLVY-AMC and DMSO was 20 μM and 0.2%, respectively. Results are presented as the percent inhibition of the 20S proteasome chymotrypsin-like activity relative to the DMSO control.

IκBα = test: Western blot of total and phosphorylated IκBα, HEK293 and NF-κB/Luc 293 cells; assay type: cell-based, human; conditions: 50 and 500 nM, 1 hour pre-treatment
Experimental: Endogenous protein levels were assessed in both HEK293 cells and the NF-κB/Luc 293 reporter clone.
Antibodies against total and phosphorylated forms of IκBα were used to determine the endogenous level of each protein and anti-Tubulin antibody was used to confirm equal loading of protein.

PANC-1 = test: Cell growth inhibition assay (resazurin, 48 h); assay type: cell-based; conditions: Homo sapiens, PANC-1, 48 h

**Q.** Which EC50 (MDA-MB-231; Homo sapiens) does the source give for `C[C@@]12OC(=O)[C@]1([C@@H](O)[C@@H]1C=CCCC1)NC(=O)[C@@H]2CCCl` [Formula II-16, Salinosporamide A] here?
**A.** Its EC50 is 67 nM.

**Q.** What about the EC50 (MDA-MB-231) of the same compound?
**A.** The EC50 was 87 ± 40 nM.

**Q.** What about the EC50 (U266) of the same compound?
**A.** Its EC50 is 4.7 ± 0.7 nM.

**Q.** What about the EC50 (tumor cell lines; RPMI 8226, PC-3, DU 145, 48 hour, read-out: EC50 values against RPMI 8226 and the prostate cell lines, range) of the same compound?
**A.** Its EC50 is 10 to 37 nM.

**Q.** And the EC50 (tumor cell lines; read-out: EC50 values for cytotoxicity, range)?
**A.** Its EC50 is 10 to 200 nM.

**Q.** What about the “% cytotoxicity” value (HL-60; HL-60) of the same compound?
**A.** The value was 88% and 91%.

**Q.** And the EC50 (HL-60; HL-60, 48 h)?
**A.** The EC50 was 30 nM.

**Q.** And the Caspase-3 activity (Caspase-3)?
**A.** The Caspase-3 activity was “activation of Caspase-3”.

**Q.** What about the “% inhibition of the chymotrypsin-like activity of 20S proteasomes in RPMI 8226 cell lysates” value [1] of the same compound?
**A.** Its value is 30 ± 7%.

**Q.** What about the EC50 [2] of the same compound?
**A.** The EC50 was about 390 nM.

**Q.** What about the EC50 (MIA PaCa-2) of the same compound?
**A.** Its EC50 is 46 nM.

**Q.** And the EC50 (CCD-27sk)?
**A.** The EC50 was 196 nM.

**Q.** And the “% inhibition of the chymotrypsin-like activity of 20S proteasomes in PC-3 cell lysates” value [3]?
**A.** The value was 69%.

**Q.** And the “effect on total IκBα and phospho-IκBα upon TNF-α stimulation” value (IκBα)?
**A.** The value was “reduced the degradation of total IκBα but also retained the phospho-IκBα level”.

**Q.** And the EC50 (PANC-1)?
**A.** Its EC50 is 60 nM.
